For one series, the system named is Nakaseomyces glabratus. Nature of the series: Antifungal activity against Candida glabrata ATCC 90030 assessed as growth inhibition after 46 to 50 hrs by modified CLSI method. The format is functional, organism-based.
A further series has as its system Pichia kudriavzevii. Nature of the series: Antifungal activity against Candida krusei ATCC 6258 assessed as growth inhibition after 46 to 50 hrs by modified CLSI method. The format is functional, organism-based.
For another series, the system named is Cryptococcus neoformans. Briefly: Antifungal activity against Cryptococcus neoformans ATCC 90113 assessed as growth inhibition after 70 to 74 hrs by modified CLSI method. The format is functional, organism-based.
In a further series the test system is Leishmania donovani. Nature of the series: Antiparasitic activity against Leishmania donovani S1 promastigotes assessed as growth inhibition after 72 hrs by alamar blue assay. The format is functional, organism-based. Conditions: S1, 72 h.
Series [1] is described as follows: Cytotoxicity against African green monkey Vero cells by neutral red assay. The series is classed as cell-based. Conditions: chlorocebus sabaeus, read-out: TC50 (the source's name).
The next series has as its system Candida albicans. Briefly: Antifungal activity against Candida albicans ATCC 90028 assessed as growth inhibition after 46 to 50 hrs by modified CLSI method. The series is classed as functional, organism-based.
A further series relates to Aspergillus fumigatus. Nature of the series: Antifungal activity against Aspergillus fumigatus ATCC 90906 assessed as growth inhibition after 46 to 50 hrs by alamar blue assay. The format is functional, organism-based. (In general: The colour change of resazurin is a common sign of viable cells or microbes.)
The test system of series [2] is Plasmodium falciparum. Nature of the series: Antiparasitic activity against chloroquine-sensitive Plasmodium falciparum D6 assessed as growth inhibition at 16 uM after 48 hrs by pLDH assay. The series is classed as functional, organism-based.
Series [3] relates to Plasmodium falciparum. Nature of the series: Antiparasitic activity against chloroquine-resistant Plasmodium falciparum W2 assessed as growth inhibition at 16 uM after 48 hrs by pLDH assay. The series is classed as functional, organism-based.

Calls of active or inactive are those of the source. The calls are words filed in the database; no cut-off is given here.

Here are results for six compounds from ChEMBL document CHEMBL3217679, “Synthesis and biological activity profile of novel 2-cinnamylidene-1,3-diones related to coruscanone A: promising new antileishmanial agents” (Medchemcomm, 2012).

The term IC50 denotes the concentration at which inhibition is half-maximal. For orientation: IC90 means the concentration needed for an effect of 90%.

In the case of `COc1ccc(/C=C/C=C2C(=O)CCCC2=O)cc1`, the IC50 in the series with Nakaseomyces glabratus was 56 µM; with Pichia kudriavzevii, over 60 µM; in the series on Cryptococcus neoformans, 44.7 µM; in the series with Leishmania donovani it was 19.5 µM. Further, the IC90 in the series with Leishmania donovani came to 91.7 µM. Moreover, the CC50 in series [1] was over 18.6 µM. The “growth inhibition (GI)” value in the series with Candida albicans, in the series with Aspergillus fumigatus, in the series on Plasmodium falciparum [2] and with Plasmodium falciparum [3] was “inactive” throughout.

`O=C1CCCC(=O)C1=CC=C(c1ccccc1)c1ccccc1`: the IC50 with Nakaseomyces glabratus is over 60 µM; in the series on Pichia kudriavzevii, over 60 µM; in the series on Cryptococcus neoformans, 14.5 µM; in the series on Leishmania donovani it was 10.2 µM. Besides, the IC90 with Leishmania donovani came to 26.1 µM. Further, the CC50 in series [1] is over 15.7 µM. For the same compound, the “growth inhibition (GI)” value in the series on Candida albicans, in the series with Aspergillus fumigatus, in the series on Plasmodium falciparum [2] and in the series on Plasmodium falciparum [3] was “inactive” throughout.

For the compound `COc1ccc(/C=C/C=C2C(=O)CC(C)(C)CC2=O)cc1`, the IC50 was over 60 µM in the series on Nakaseomyces glabratus, over 60 µM in the series on Pichia kudriavzevii, 38.2 µM in the series on Cryptococcus neoformans and 30.6 µM in the series with Leishmania donovani. In the series with Leishmania donovani, the IC90 was 68.9 µM. For the same compound, the CC50 in series [1] is over 16.7 µM. In addition, the “growth inhibition (GI)” value in the series on Candida albicans, in the series on Aspergillus fumigatus, in the series with Plasmodium falciparum [2] and with Plasmodium falciparum [3] was “inactive” in each case.

As for `CC1(C)CC(=O)C(=C/C=C/c2ccc(F)cc2)C(=O)C1`, the IC50 in the series on Nakaseomyces glabratus was 35.6 µM; with Pichia kudriavzevii it was over 60 µM; with Cryptococcus neoformans, 16.6 µM; with Leishmania donovani, 10.7 µM. The IC90 with Leishmania donovani came to 25 µM. Besides, the CC50 in [1] was over 17.5 µM. Also, the “growth inhibition (GI)” value with Candida albicans, with Aspergillus fumigatus, in the series with Plasmodium falciparum [2] and with Plasmodium falciparum [3] was “inactive” in each case.

On to `CC1(C)CC(=O)C(=C/C=C/c2ccc(Br)cc2)C(=O)C1`, for which the 50% inhibitory concentration (IC50) was over 60 µM in the series on Nakaseomyces glabratus, over 60 µM in the series on Pichia kudriavzevii, 24.7 µM in the series on Cryptococcus neoformans and 9.6 µM in the series with Leishmania donovani. Besides, the IC90 with Leishmania donovani is 18.6 µM. Also, the CC50 in [1] was over 14.3 µM. In addition, the “growth inhibition (GI)” value with Candida albicans, in the series on Aspergillus fumigatus, in the series on Plasmodium falciparum [2] and with Plasmodium falciparum [3] was “inactive” in each case.

`CC(=O)C(=C/C=C/c1ccccc1)C(C)=O`: the IC50 was over 60 µM in the series with Nakaseomyces glabratus, over 60 µM with Pichia kudriavzevii, over 60 µM in the series on Cryptococcus neoformans and 19.1 µM with Leishmania donovani. Also, in the series on Leishmania donovani, the IC90 was 52.3 µM. In addition, in series [1], the CC50 is over 22.2 µM. The “growth inhibition (GI)” value with Candida albicans, in the series with Aspergillus fumigatus, in the series on Plasmodium falciparum [2] and with Plasmodium falciparum [3] was “inactive” each time.
